Test results as given in patent US12133855B2, “Lipid-like nanocomplexes and uses thereof” (Trustees of Tufts College, priority 2018, dated 2024).
Read-outs that look alike come from different tables or passages of the source.

Tests used:
[1] = test system: Jurkat (human T lymphocyte cells); test: GFP mRNA delivery (GFP+ cells); type: cell-based; conditions: LNP/mRNA=10/1, [mRNA]=0.86 μg mL^−1, 24 h
Experimental: To examine the delivery spectrum of the newly developed LNPs, the GFP mRNA loaded OCholB LNPs were then challenged against other four types of cell lines. B16F10 (mouse melanoma cells), HEK 293 (human embryonic kidney cells), NIH 3T3 (mouse embryonic fibroblast cells) and Jurkat (human T lymphocyte cells) cells were tested (LNP/mRNA=10/1; [mRNA]=0.86 μg mL^−1; 24 h exposure) and the results are shown in FIG. 14D. As the positive control, Lpf2k turned out to be very efficient to deliver GFP mRNA into B16F10 (63.2% of GFP^+ cells), HEK 293 (80.1%) and NIH 3T3 (70.1%) cells, while slightly less efficient to Jurkat cell (28.7%), which is usually considered to be one of the most difficult-to-transfect cell lines. […] For example, 63.0%, 60.9%, 54.1% and 50.1% of GFP^+ cells were determined from mRNA/75-OCholB treated B16F10, HEK 293, NIH 3T3 and Jurkat cells; and the numbers for mRNA/76-OCholB treated cells were 70.7%, 75.8%, 24.1% and 7.7%, respectively. It was obvious that not only the types of lipidoids, but also the target cell lines could have huge impacts on the delivery efficacy. Overall, the positive control, Lpf2k, is a relatively high-activity broad-spectrum transfection reagent; most of the OCholB LNPs (6 out of 9) are also effective broad-spectrum transfection reagents under the tested conditions. […] It was expected that through further formulation optimization, such as adding excipients (helper lipids like small molecular phospholipids (e.g. DOPE and DSPC) and macromolecules lipids (e.g. PEG-DSPE and PEG-Ceramide)) into the LNPs and/or using more controllable self-assembly procedures, improved transfection efficiency of the fully substituted OCholB LNPs could be achieved.

[2] = In vivo toxicity of blank OCholB LNPs (body weight, serum biochemistry); design: species or system Balb/c mice; conditions: blank LNPs 50 μg per injection, tail vein; for serum concentrations of creatinine, urea, AST and ALT: day 1 and 5, blood at day 14; for body weight vs untreated control group: day 1 and day 5, 14 days
Experimental: For in vivo toxicity studies, the body weights of untreated and nanoparticles injected Balb/c mice (housed in a temperature and humidity controlled facility with a 12 h light/dark cycle) were measured at day 1, 3, 5, 7, 9, 11, 13 and 14. Biological functions of kidney and liver were examined by the serum biochemical tests and concentrations of creatinine, urea, aspartate aminotransferase (AST), and alanine aminotransferase (ALT) were measured using corresponding detection kits (MilliporeSigma) following manufacturers' protocols.
The in vivo toxicity of the OCholB LNPs was further examined by measuring body weight change and biological functions of kidney and liver through serum biochemical tests using Balb/c mice. 4-6 weeks old Balb/c mice (n=3) were injected with blank 75-OCholB, 76-OCholB and 77-OCholB LNPs (50 μg LNPs for each injection) through tail vein at day 1 and day 5, body weights were monitored for 14 days, and blood were collected and analyzed at day 14.

HeLa-DsRed cells = type: cell-based; conditions: for cell viability: 8 h exposure, MTT after 24 h; for cell morphology changes: bright field images
Experimental: All experiments were performed in quadruplicate.
In this context, the internalization mechanism of the (−30)GFP-Cre/LNPs complexes was studied at first, by introducing different endocytosis inhibitors, i.e., sucrose (clathrin-mediated endocytosis inhibitor), methyl-β-cyclodextrin (M-β-CD, cholesterol-depleting agent), dynasore (dynamin II inhibitor) and nystatin (caveolin-mediated endocytosis inhibitor), following our previously reported procedures. […] Comparing to other combinatorial library studies, it is clear that even loaded with same cargoes and tested against same cell line, different lipidoids with different chemical structures could be internalized through very distinct pathways. Next, the genome-editing efficiencies of (−30)GFP-Cre/LNPs were determined by flow cytometry after 24 h of incubation (with 8 h of (−30)GFP-Cre/LNPs complex exposure). Three different concentrations of protein/lipidoid complexes (25 nM/1.7 μg mL^−1, 50 nM/3.4 μg mL^−1, and 100 nM/6.6 μg mL^−1) were tested for each lipidoid nanoparticle. […] For example, the DsRed^+ cells were recorded as 10.5%/24.9%/88.9%, 13.5%/55.4%/88.8%, and 27.7%/47.8%/94.7% for (−30)GFP-Cre loaded 75-OCholB, 76-OCholB and 77-OCholB, respectively, at the protein concentration of 25, 50 and 100 nM. […] Then, the cytotoxicity profiles of (−30)GFP-Cre/LNPs, (−30)GFP-Cre/Lpf2k and naked (−30)GFP-Cre at different concentrations against HeLa-DsRed cells (8 h of exposure; (−30)GFP-Cre/LNPs=25 nM/1.7 μg mL^−1, 50 nM/3.4 μg mL^−1, and 100 nM/6.6 μg mL^−1) are measured using MTT assay after 24 h of incubation. […] For (−30)GFP-Cre/75-OCholB treated cells, the viabilities were determined to be 95.5%, 91.8% and 83.1%, at the protein concentration of 25, 50 and 100 nM, respectively; the numbers for (−30)GFP-Cre/76-OCholB and (−30)GFP-Cre/77-OCholB are 97.8%/98.2%/97.2 and 100.9%/96.6%/98.6%. […] Meanwhile, the morphology changes of HeLa-DsRed cell treated with different nanoparticle formulations were studied and the results are shown in FIG. 15E. […] Samples found in upper left quadrant are non-toxic and inefficient for delivery; samples in lower left quadrant are toxic and inefficient; samples in lower right quadrant are efficient but toxic; samples in upper right quadrant are non-toxic and efficient, which would be top candidates for further study. It is clear that Lpf2k (shown in dotted purple circle) at high concentration is relatively efficient for genome editing, while also toxic to the target cells. On the other hand, most of the (−30)GFP-Cre loaded OCholB LNPs are almost non-toxic when compared to (−30)GFP-Cre/Lpf2k, similar to naked (−30)GFP-Cre protein. 87-OCholB, 90-OCholB and 304-OCholB (shown in dotted dark blue circle) are less efficient for genome-editing; while high genome editing efficacy and excellent tolerability were achieved by using 75-OCholB, 76-OCholB and 77-OCholB (shown in dotted green circle).

HeLa cells = test: Internalization of Nile red loaded nanoparticles (NR+ cells); type: cell-based; conditions: 4 h of exposure
[3] = (−30)GFP-Cre 25 nM/1.7 μg mL^−1
[4] = (−30)GFP-Cre 50 nM/3.4 μg mL^−1
[5] = (−30)GFP-Cre 100 nM/6.6 μg mL^−1

Structure (SMILES)	GFP^+ cells [1]	GFP^+ cells ([1]; listed as mRNA/75-OCholB) [%]	serum concentrations of creatinine, urea, AST and ALT [2]	body weight vs untreated control group [2]	cell viability (HeLa-DsRed cells; [3]) [%]	cell viability (HeLa-DsRed cells; [4]) [%]	cell viability (HeLa-DsRed cells; [5]) [%]	cell morphology changes (HeLa-DsRed cells)	NR^+ cells (HeLa cells) [%]
CCN(CC)CCN(CCC(=O)OCCSSCCNC(=O)OC1CCC2(C)C(=CCC3C2CCC2(C)C(C(C)CCCC(C)C)CCC32)C1)CCC(=O)OCCSSCCNC(=O)OC1CCC2(C)C(=CCC3C2CCC2(C)C(C(C)CCCC(C)C)CCC32)C1 (centres unmarked) [Lipidoid 75-OCholB]	particular advantages over Lpf2k	50.1	very similar to control mice	negligible differences	95.5	91.8	83.1	less affected	85.2
CC(C)CCCC(C)C1CCC2C3CC=C4CC(OC(=O)NCCSSCCOC(=O)CCN(CCC(=O)OCCSSCCNC(=O)OC5CCC6(C)C(=CCC7C6CCC6(C)C(C(C)CCCC(C)C)CCC76)C5)CCN5CCCC5)CCC4(C)C3CCC12C (centres unmarked) [Lipidoid 76-OCholB]	7.7%		very similar to control mice	negligible differences	97.8	98.2	97.2	less affected	65.0
CC(C)CCCC(C)C1CCC2C3CC=C4CC(OC(=O)NCCSSCCOC(=O)CCN(CCC(=O)OCCSSCCNC(=O)OC5CCC6(C)C(=CCC7C6CCC6(C)C(C(C)CCCC(C)C)CCC76)C5)CCC5CCCN5C)CCC4(C)C3CCC12C (centres unmarked) [Lipidoid 77-OCholB]	particular advantages over Lpf2k		very similar to control mice	negligible differences	100.9	96.6	98.6	less affected	90.3
CC(C)CCCC(C)C1CCC2C3CC=C4CC(OC(=O)NCCSSCCOC(=O)CCN(CCC(=O)OCCSSCCNC(=O)OC5CCC6(C)C(=CCC7C6CCC6(C)C(C(C)CCCC(C)C)CCC76)C5)CCN(C)C)CCC4(C)C3CCC12C (centres unmarked) [Lipidoid 78-OCholB]	particular advantages over Lpf2k								
